Experimental data reported in patent publication US20230295157A1, “3-(1H-IMIDAZOL-2-YL)-2,3,8,8A-TETRAHYDROINDOLIZIN-5(1H)-ONE DERIVATIVES USEFUL AS FACTOR XIA INHIBITORS” (JANSSEN PHARMACEUTICA NV, priority 2020, published 2023).
Read-outs that look alike come from different tables or passages of the source.

Assays:
Factor XIa = Factor XIa (Homo sapiens (Human), UniProt P03951); assay: Factor XIa inhibition assay (FLINT) utilizing a fluorophore-quencher pair peptide substrate; format: biochemical; conditions: 30 min preincubation, kinetic reads over 30 min, read-out: FXIa Kin Inh IC50
How it was run: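 FXIa ([…]) preincubated 30 min with compound (11-point 3-fold dilution, top 100 nM, 2% DMSO), then 15 μM quenched FXI Arg146-based peptide added; Tris pH 7.5, CaCl2, BSA, CHAPS. Fluorescence 485/520 nm read kinetically every 5 min over 30 min at RT; IC50 by 4-parameter fit.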

human plasma kallikrein = human plasma kallikrein (Homo sapiens (Human), UniProt P03952); assay: Kallikrein inhibition assay (FLINT) utilizing a quenched AMC peptide substrate; format: biochemical; conditions: 30 min preincubation, kinetic reads over 30 min, Z-Gly-Pro-Arg-AMC substrate 50 μM; read-out: Kallikrein Kin Inh IC50
How it was run: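 Enzyme (2 nM final) pre-incubated 30 min at room temperature with compound (11-point, 3-fold, top 1 μM, 2% DMSO), then 50 μM Z-Gly-Pro-Arg-AMC added in Tris pH 7.5 buffer. Kinetic fluorescence 340/440 nm every 5 min over 30 min; IC50 from 4-parameter logistic fit.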

[1] = 5Fam-KLTRAETV-K5Tamra substrate 15 μM
[2] = 5Fam-[…]-K5Tamra substrate 15 μM

Factor XIa, sequence (P03951 388-625): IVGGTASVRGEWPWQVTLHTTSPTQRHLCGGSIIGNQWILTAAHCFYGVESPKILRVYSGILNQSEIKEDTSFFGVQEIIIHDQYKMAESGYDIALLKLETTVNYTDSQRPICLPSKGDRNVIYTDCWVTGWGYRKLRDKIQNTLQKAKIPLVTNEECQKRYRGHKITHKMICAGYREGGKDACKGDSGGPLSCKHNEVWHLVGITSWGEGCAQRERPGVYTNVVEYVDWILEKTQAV
Factor XIa, sequence (P03951 19-387 partner): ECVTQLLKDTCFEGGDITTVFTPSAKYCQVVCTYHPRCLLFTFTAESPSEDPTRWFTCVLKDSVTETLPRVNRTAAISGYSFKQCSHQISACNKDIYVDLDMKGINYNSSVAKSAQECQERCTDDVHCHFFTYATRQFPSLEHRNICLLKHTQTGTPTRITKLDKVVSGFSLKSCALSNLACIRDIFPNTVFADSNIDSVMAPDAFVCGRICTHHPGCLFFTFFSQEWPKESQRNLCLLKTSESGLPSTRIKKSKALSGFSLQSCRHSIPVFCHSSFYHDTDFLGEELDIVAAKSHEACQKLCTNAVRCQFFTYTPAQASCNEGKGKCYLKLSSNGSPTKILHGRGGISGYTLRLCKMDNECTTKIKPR
human plasma kallikrein, sequence (P03952 391-638): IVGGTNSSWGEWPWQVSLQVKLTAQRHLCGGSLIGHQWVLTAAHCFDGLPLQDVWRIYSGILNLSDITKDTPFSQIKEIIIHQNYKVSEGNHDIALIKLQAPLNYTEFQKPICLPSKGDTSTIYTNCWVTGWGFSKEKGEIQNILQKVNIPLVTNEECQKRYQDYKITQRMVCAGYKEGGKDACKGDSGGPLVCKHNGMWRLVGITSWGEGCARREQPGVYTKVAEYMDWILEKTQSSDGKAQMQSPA
human plasma kallikrein, sequence (P03952 20-390 partner): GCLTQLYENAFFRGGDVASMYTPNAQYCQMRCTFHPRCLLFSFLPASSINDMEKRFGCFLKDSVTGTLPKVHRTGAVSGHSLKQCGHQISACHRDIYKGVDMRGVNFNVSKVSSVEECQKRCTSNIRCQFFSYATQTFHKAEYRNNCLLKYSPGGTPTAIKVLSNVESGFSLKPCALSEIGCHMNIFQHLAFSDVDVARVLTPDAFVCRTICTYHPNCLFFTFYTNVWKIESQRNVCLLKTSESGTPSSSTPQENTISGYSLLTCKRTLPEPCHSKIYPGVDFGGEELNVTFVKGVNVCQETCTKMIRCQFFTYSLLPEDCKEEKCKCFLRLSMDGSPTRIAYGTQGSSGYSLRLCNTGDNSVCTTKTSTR

| Structure (SMILES) | IC50 (Factor XIa; [1]) | IC50 (human plasma kallikrein) | IC50 (Factor XIa; [2]) |
| --- | --- | --- | --- |
| [2H]c1nc([C@@H]2CC[C@@H]3CC(c4c(-n5cnnn5)ccc(Cl)c4F)=CC(=O)N32)[nH]c1-c1c(F)nc(N)c([2H])c1[2H] [Example 149, (3S,8aR)-3-[5-(6-amino-4,5-dideuterio-2-fluoro-3-pyridyl)-4-deuterio-1H-imidazol-2-yl]-7-[3-chloro-2-fluoro-6-(tetrazol-1-yl)phenyl]-2,3,8,8a-tetrahydro-1H-indolizin-5-one] | 0.5 nM | 7.6 nM |  |
| O=C(Nc1ccccc1-c1c[nH]c([C@@H]2CCC3CC(c4c(-n5cnnn5)ccc(Cl)c4F)=CC(=O)N32)n1)C1CCCC1 (stereo partly drawn) [Example 330] | 0.9 nM | 2.4 nM |  |
| [2H]c1cc(Cl)c(F)c(C2=CC(=O)N3[C@H](CC[C@H]3c3nc(-c4ccc(N)nc4F)c[nH]3)C2)c1-n1cnnn1 [Example 153, (3S,8aR)-3-[4-(6-amino-2-fluoro-3-pyridyl)-1H-imidazol-2-yl]-7-[3-chloro-5-deuterio-2-fluoro-6-(tetrazol-1-yl)phenyl]-2,3,8,8a-tetrahydro-1H-indolizin-5-one] | 0.5 nM | 8.1 nM |  |
| COC(=O)Nc1ccc(-c2cnc([C@@H]3CCC4CC(c5c(OCC(F)(F)F)ccc(Cl)c5F)=CC(=O)N43)[nH]2)cc1 (stereo partly drawn) [Example 324, Methyl (4-(2-((3S)-7-(3-Chloro-2-fluoro-6-(2,2,2-trifluoroethoxy)phenyl)-5-oxo-1,2,3,5,8,8a-hexahydroindolizin-3-yl)-1H-imidazol-5-yl)phenyl)carbamate] | 14.3 nM | 95 nM |  |
| CCOC(=O)Nc1ccncc1-c1c[nH]c([C@@H]2CCC3CC(c4c(-n5cnnn5)ccc(Cl)c4F)=CC(=O)N32)n1 (stereo partly drawn) [Example 251, Ethyl N-[3-[2-[(3S)-7-[3-chloro-2-fluoro-6-(tetrazol-1-yl)phenyl]-5-oxo-2,3,8,8a-tetrahydro-1H-indolizin-3-yl]-1H-imidazol-4-yl]-4-pyridyl]carbamate] | 32.2 nM | 226 nM |  |
| Nc1ccc(-c2cnc([C@@H]3CC[C@@H]4CC(c5cc(Cl)ccc5-n5cnnn5)=CC(=O)N43)[nH]2)c(F)n1 (single isomer, unassigned) [Example 122, (3*S,8aR)-3-(5-(6-amino-2-fluoropyridin-3-yl)-1H-imidazol-2-yl)-7-(5-chloro-2-(1H-tetrazol-1-yl)phenyl-3-d)-2,3,8,8a-tetrahydroindolizin-5(1H)-one] | 4 nM | 53.1 nM |  |
| O=C1C=C(c2c(OC(F)F)ccc(Cl)c2F)C[C@H]2CC[C@@H](c3ncc(-c4ccnc(CO)c4F)[nH]3)N12 [Example 25, (3S,8aR)-7-(3-Chloro-6-(difluoromethoxy)-2-fluorophenyl)-3-(5-(3-fluoro-2-(hydroxymethyl)pyridin-4-yl)-1H-imidazol-2-yl)-2,3,8,8a-tetrahydroindolizin-5(1H)-one] | > 100 nM | 480 nM |  |
| [2H]c1nc([C@@H]2CC[C@@H]3CC(c4c(-n5cnnn5)ccc(Cl)c4F)=CC(=O)N32)[nH]c1-c1ccnc(CO)c1F [Example 117, (3S,8aR)-7-(3-chloro-2-fluoro-6-(1H-tetrazol-1-yl)phenyl)-3-(5-(3-fluoro-2-(hydroxymethyl)pyridin-4-yl)-1H-imidazol-2-yl-4-d)-2,3,8,8a-tetrahydroindolizin-5(1H)-one] | 2.9 nM | 24.8 nM |  |
| O=C1C=C(c2c(-n3cnnn3)ccc(Cl)c2F)C[C@H]2CC[C@@H](c3ncc(-c4ccnc(OC[C@@H]5COCCO5)c4F)[nH]3)N12 (single isomer, unassigned) [Example 157, (3*S,8aR)-3-(5-(2-(((S)-1,4-dioxan-2-yl)methoxy)-3-fluoropyridin-4-yl)-1H-imidazol-2-yl)-7-(3-chloro-2-fluoro-6-(1H-tetrazol-1-yl)phenyl)-2,3,8,8a-tetrahydroindolizin-5(1H)-one] | 2 nM | 6.8 nM |  |
| CC(C)(CO)Nc1nccc(-c2cnc([C@@H]3CC[C@@H]4CC(c5c(-n6cnnn6)ccc(Cl)c5F)=CC(=O)N43)[nH]2)c1F [Example 89, (3S,8aR)-7-[3-chloro-2-fluoro-6-(tetrazol-1-yl)phenyl]-3-[5-[3-fluoro-2-[(2-hydroxy-1,1-dimethyl-ethyl)amino]-4-pyridyl]-1H-imidazol-2-yl]-2,3,8,8a-tetrahydro-1H-indolizin-5-one] | 5.8 nM | 7.4 nM |  |

Now from value to compound:

| IC50 (Factor XIa; [1]) | IC50 (human plasma kallikrein) | IC50 (Factor XIa; [2]) | Structure (SMILES) |
| --- | --- | --- | --- |
| 5.3 nM | 21.6 nM |  | O=C1C=C(c2c(-n3cnnn3)ccc(Cl)c2F)C[C@H]2CC[C@@H](c3ncc(-c4ccc(CO)nc4Cl)[nH]3)N12 [Example 236, (3S,8aR)-7-(3-Chloro-2-fluoro-6-(1H-tetrazol-1-yl)phenyl)-3-(5-(2-chloro-6-(hydroxymethyl)pyridin-3-yl)-1H-imidazol-2-yl)-2,3,8,8a-tetrahydroindolizin-5(1H)-one] |
| 1 nM | 3.2 nM |  | O=C1Cc2cc(-c3cnc([C@@H]4CCC5CC(c6c(-n7cnnn7)ccc(Cl)c6F)=CC(=O)N54)[nH]3)ccc2N1 (stereo partly drawn) [Example 314, 5-(2-((3S)-7-(3-Chloro-2-fluoro-6-(1H-tetrazol-1-yl)phenyl)-5-oxo-1,2,3,5,8,8a-hexahydroindolizin-3-yl)-1H-imidazol-5-yl)indolin-2-one] |
| 0.3 nM | 0.7 nM |  | O=C1CCc2cc(-c3cnc([C@@H]4CCC5CC(c6c(-n7cnnn7)ccc(Cl)c6F)=CC(=O)N54)[nH]3)ccc2N1 (stereo partly drawn) [Example 311, 6-(2-((3S)-7-(3-Chloro-2-fluoro-6-(1H-tetrazol-1-yl)phenyl)-5-oxo-1,2,3,5,8,8a-hexahydroindolizin-3-yl)-1H-imidazol-5-yl)-3,4-dihydroquinolin-2(1H)-one] |
| 0.4 nM | 1.3 nM |  | CCNc1nccc(-c2cnc([C@@H]3CC[C@@H]4CC(c5c(-n6cnnn6)ccc(Cl)c5F)=CC(=O)N43)[nH]2)c1F [Example 390, (3S,8aR)-7-(3-chloro-2-fluoro-6-(1H-tetrazol-1-yl)phenyl)-3-(5-(2-(ethylamino)-3-fluoropyridin-4-yl)-1H-imidazol-2-yl)-2,3,8,8a-tetrahydroindolizin-5(1H)-one] |
| 2.2 nM | 16.8 nM |  | O=C1C=C(c2c(-n3cnnn3)ccc(Cl)c2F)C[C@H]2CC[C@@H](c3ncc(-c4ccnc(CO)c4F)[nH]3)N12 (single isomer, unassigned) [Example 194, (3*S,8a*R)-7-(3-chloro-2-fluoro-6-(1H-tetrazol-1-yl)phenyl)-3-(4-(3-fluoro-2-(hydroxymethyl-d2)pyridin-4-yl)-1H-imidazol-2-yl)-2,3,8,8a-tetrahydroindolizin-5(1H)-one] |
| 1.4 nM | 12.4 nM |  | Nc1cc(-c2cnc([C@@H]3CC[C@@H]4CC(c5c(-n6cnnn6)ccc(Cl)c5F)=CC(=O)N43)[nH]2)ccn1 [Example 389, (3S,8aR)-3-(5-(2-aminopyridin-4-yl)-1H-imidazol-2-yl)-7-(3-chloro-2-fluoro-6-(1H-tetrazol-1-yl)phenyl)-2,3,8,8a-tetrahydroindolizin-5(1H)-one] |
| 0.3 nM | 0.7 nM |  | O=C1C=C(c2c(-n3cnnn3)ccc(Cl)c2F)CC2CC[C@@H](c3ncc(-c4ccc5[nH]c(=O)ccc5c4)[nH]3)N12 (stereo partly drawn) [Example 261, 6-[2-[(3S)-7-[3-Chloro-2-fluoro-6-(tetrazol-1-yl)phenyl]-5-oxo-2,3,8,8a-tetrahydro-1H-indolizin-3-yl]-1H-imidazol-5-yl]-1H-quinolin-2-one] |
|  | 1.2 nM | 0.6 nM | O=C1CCc2cc(-c3cnc([C@@H]4CC[C@H]5CC(c6c(-n7cnnn7)ccc(Cl)c6F)=CC(=O)N54)[nH]3)ccc2N1 (relative stereo) [Example 280, 6-(2-((3S,8aS)-7-(3-Chloro-2-fluoro-6-(1H-tetrazol-1-yl)phenyl)-5-oxo-1,2,3,5,8,8a-hexahydroindolizin-3-yl)-1H-imidazol-5-yl)-3,4-dihydroquinolin-2(1H)-one] |
| 3.5 nM | 23.9 nM |  | CC1(O)CCc2c(-c3cnc(C4CCC5CC(c6c(-n7cnnn7)ccc(Cl)c6F)=CC(=O)N54)[nH]3)ccnc21 (stereo not drawn) [Example 95, 7-(3-Chloro-2-fluoro-6-(1H-tetrazol-1-yl)phenyl)-3-(5-(7-hydroxy-7-methyl-6,7-dihydro-5H-cyclopenta[b]pyridin-4-yl)-1H-imidazol-2-yl)-2,3,8,8a-tetrahydroindolizin-5(1H)-one] |
|  | 2 nM | 1.4 nM | Cn1c(=O)[nH]c2ccc(-c3cnc([C@@H]4CC[C@@H]5CC(c6c(-n7cnnn7)ccc(Cl)c6F)=CC(=O)N54)[nH]3)cc21 (relative stereo) [Example 300, 6-(2-((3S,8aR*)-7-(3-Chloro-2-fluoro-6-(1H-tetrazol-1-yl)phenyl)-5-oxo-1,2,3,5,8,8a-hexahydroindolizin-3-yl)-1H-imidazol-5-yl)-1-methyl-1H-benzo[d]imidazol-2(3H)-one] |
| 3.5 nM | 11.4 nM |  | COc1n[nH]cc1-c1cnc([C@@H]2CC[C@@H]3CC(c4c(-n5cnnn5)ccc(Cl)c4F)=CC(=O)N32)[nH]1 [Example 227, (3S,8aR)-7-(3-chloro-2-fluoro-6-(1H-tetrazol-1-yl)phenyl)-3-(5-(3-methoxy-1H-pyrazol-4-yl)-1H-imidazol-2-yl)-2,3,8,8a-tetrahydroindolizin-5(1H)-one] |
